Measurements: ChEMBL document CHEMBL1140991, “Synthesis and testing of peptides for anti-prion activity” (Eur J Med Chem, 2008)
Peptide text beside a SMILES is read from it.

What was measured:
brain [1] = assay: Antiprion activity against Scrapie prion protein-infected mouse brain cells assessed as remaining PrP-res level at 100 uM after 4 days by Western blotting relative to control; assay type: tissue-based
[2] = molecular target: Major prion protein (Mus musculus) (UniProt P04925); assay: Inhibition of mouse recombinant PrP interaction with scrapie mouse brain PrP-res assessed as PrP-res formation at 100 uM after 30 mins by aggregation assay relative to control
Major prion protein (Mus musculus), sequence (P04925 whole entry): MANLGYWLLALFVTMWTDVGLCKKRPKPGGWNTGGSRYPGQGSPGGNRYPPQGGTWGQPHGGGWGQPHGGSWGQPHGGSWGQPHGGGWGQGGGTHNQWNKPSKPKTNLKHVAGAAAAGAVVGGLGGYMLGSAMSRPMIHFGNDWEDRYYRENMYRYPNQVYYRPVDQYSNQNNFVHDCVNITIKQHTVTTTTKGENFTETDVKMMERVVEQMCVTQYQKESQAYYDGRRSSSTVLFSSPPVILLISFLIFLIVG

brain [3] = assay: Antiprion activity against Scrapie prion protein-infected mouse brain cells assessed as remaining PrP-res level at 10 uM after 4 days by Western blotting relative to control; assay type: tissue-based
[4] = molecular target: Major prion protein (Mus musculus) (UniProt P04925); assay: Inhibition of manganese-induced aggregation in mouse recombinant PrP assessed as PrP-res formation at 100 uM after 30 mins relative to control; parameters: scale not given: the % may be the effect or the level left

Compound: CC(C)[C@H](NC(=O)[C@@H](NC(=O)[C@H](C)NC(=O)CNC(=O)[C@@H]1CCCN1C(=O)[C@H](C)NC(=O)[C@H](C)NC(=O)[C@H](C)NC(=O)CNC(=O)[C@H](C)NC(=O)[C@@H](C)N)C(C)C)C(N)=O
- Activity (brain [1]): 5%
- PrP-res formation relative to control [2]: 52%
- Remaining PrP-res level (brain [3]): 73%
- Activity [4]: 52%

Compound: CC(C)[C@H](NC(=O)[C@@H](NC(=O)[C@H](C)NC(=O)CNC(=O)[C@H](C)NC(=O)[C@H](C)NC(=O)[C@H](C)NC(=O)[C@H](C)NC(=O)[C@@H]1CCCN1C(=O)[C@H](C)NC(=O)[C@@H](C)N)C(C)C)C(N)=O
- Activity (brain [1]): 14%
- PrP-res formation relative to control [2]: 22%
- Remaining PrP-res level (brain [3]): 131%
- Activity [4]: 22%

Compound: CC(C)[C@H](NC(=O)[C@H](C)NC(=O)CNC(=O)[C@@H]1CCCN1C(=O)[C@H](C)NC(=O)[C@H](C)NC(=O)[C@H](C)NC(=O)CNC(=O)[C@H](C)NC(=O)[C@@H](C)N)C(N)=O
- Activity (brain [1]): 129%
- Activity [4]: 54%

Compound: CC(C)[C@H](NC(=O)[C@H](C)NC(=O)CNC(=O)[C@H](C)NC(=O)[C@H](C)NC(=O)[C@H](C)NC(=O)[C@H](C)NC(=O)[C@@H]1CCCN1C(=O)[C@H](C)NC(=O)[C@@H](C)N)C(N)=O
- Activity (brain [1]): 148%
- Activity [4]: 28%

Compound: C[C@H](NC(=O)CNC(=O)[C@@H]1CCCN1C(=O)[C@H](C)NC(=O)[C@H](C)NC(=O)[C@H](C)NC(=O)CNC(=O)[C@@H]1CCCN1C(=O)[C@@H](C)N)C(N)=O
- Activity (brain [1]): 7%
- Activity [4]: 89%

Compound: C[C@H](NC(=O)CNC(=O)[C@@H]1CCCN1C(=O)[C@H](C)NC(=O)[C@H](C)NC(=O)[C@H](C)NC(=O)CNC(=O)[C@H](C)NC(=O)[C@@H](C)N)C(N)=O
- Activity (brain [1]): 81%
- Activity [4]: 27%

Compound: C[C@H](NC(=O)CNC(=O)[C@@H]1CCCN1C(=O)[C@H](C)NC(=O)[C@H](C)NC(=O)[C@H](C)NC(=O)[C@@H]1CCCN1C(=O)[C@H](C)NC(=O)[C@@H](C)N)C(N)=O
- Activity (brain [1]): 33%
- Activity [4]: 85%

Compound: C[C@H](NC(=O)CNC(=O)[C@H](C)NC(=O)[C@@H](C)N)C(=O)N[C@@H](C)C(=O)N[C@@H](C)C(=O)N1CCC[C@H]1C(=O)NCC(=O)N1CCC[C@H]1C(N)=O
- Activity (brain [1]): 88%
- Activity [4]: 27%

Compound: C[C@H](NC(=O)CNC(=O)[C@H](C)NC(=O)[C@@H](C)N)C(=O)N[C@@H](C)C(=O)N[C@@H](C)C(=O)N1CCC[C@H]1C(=O)NCC(N)=O
- Activity (brain [1]): 108%
- PrP-res formation relative to control [2]: 2%
- Activity [4]: 2%

Compound: C[C@H](NC(=O)CNC(=O)[C@H](C)NC(=O)[C@@H](C)N)C(=O)N[C@@H](C)C(=O)N[C@@H](C)C(=O)N1CCC[C@H]1C(N)=O
- Activity (brain [1]): 206%

Compound: C[C@H](NC(=O)CNC(=O)[C@H](C)NC(=O)[C@H](C)NC(=O)[C@H](C)NC(=O)[C@H](C)NC(=O)[C@@H]1CCCN1C(=O)[C@H](C)NC(=O)[C@@H](C)N)C(N)=O
- Activity (brain [1]): 66%
- Activity [4]: 103%

Compound: C[C@H](NC(=O)[C@@H](C)N)C(=O)N1CCC[C@H]1C(=O)NCC(N)=O
- Activity (brain [1]): 100%
- Activity [4]: 88%

Compound: C[C@H](NC(=O)[C@@H]1CCCN1C(=O)[C@@H](C)N)C(N)=O
- Activity (brain [1]): 45%
- Activity [4]: 148%

Compound: C[C@H](NC(=O)[C@H](C)NC(=O)[C@H](C)NC(=O)[C@H](C)NC(=O)[C@@H]1CCCN1C(=O)[C@H](C)NC(=O)[C@@H](C)N)C(=O)NCC(N)=O
- Activity (brain [1]): 128%
- PrP-res formation relative to control [2]: 46%
- Activity [4]: 46%

Compound: C[C@H](NC(=O)[C@H](C)NC(=O)[C@H](C)NC(=O)[C@H](C)NC(=O)[C@@H]1CCCN1C(=O)[C@H](C)NC(=O)[C@@H](C)N)C(N)=O
- Activity (brain [1]): 195%
- PrP-res formation relative to control [2]: 2%
- Activity [4]: 2%

Compound: C[C@H](NC(=O)[C@@H]1CCCN1C(=O)[C@H](C)NC(=O)CN)C(=O)O (H-GAPA-OH)
- Activity (brain [1]): 47%
- Activity [4]: 266%

Compound: C[C@H](NC(=O)CN)C(=O)N1CCC[C@H]1C(N)=O (H-Gly-Ala-Pro-NH2)
- Activity (brain [1]): 32%
- Activity [4]: 111%

Compound: NCC(=O)N1CCC[C@H]1C(=O)N1CCC[C@H]1C(N)=O (H-Gly-Pro-Pro-NH2)
- Activity (brain [1]): 25%
- Activity [4]: 81%

Compound: C[C@H](NC(=O)[C@H](C)NC(=O)[C@@H]1CCCN1)C(N)=O (H-Pro-Ala-Ala-NH2)
- Activity (brain [1]): 51%
- Activity [4]: 88%

Compound: C[C@H](NC(=O)[C@@H]1CCCN1)C(=O)N1CCC[C@H]1C(N)=O (H-Pro-Ala-Pro-NH2)
- Activity (brain [1]): 156%
- Activity [4]: 59%

Compound: C[C@H](NC(=O)[C@@H]1CCCN1C(=O)[C@@H]1CCCN1)C(N)=O (H-Pro-Pro-Ala-NH2)
- Activity (brain [1]): 10%
- Activity [4]: 125%

Compound: NC(=O)CNC(=O)[C@@H]1CCCN1C(=O)[C@@H]1CCCN1 (H-Pro-Pro-Gly-NH2)
- Activity (brain [1]): 48%
- Activity [4]: 96%

Compound: H-AAGAAAA-NH2
- Activity (brain [1]): 65%

Compound: H-AAGAAAAG-NH2
- Activity (brain [1]): 108%
- PrP-res formation relative to control [2]: 23%
- Activity [4]: 23%

Compound: H-AAGAAAAGA-NH2
- Activity (brain [1]): 56%
- Activity [4]: 76%

Compound: H-AAGAAAAGAV-NH2
- Activity (brain [1]): 133%
- Activity [4]: 57%

Compound: H-AAGAAAAGAVV-NH2
- Activity (brain [1]): 34%
- PrP-res formation relative to control [2]: 17%
- Remaining PrP-res level (brain [3]): 200%
- Activity [4]: 17%

Compound: H-GAAAPG-NH2
- Activity (brain [1]): 124%
- Activity [4]: 111%

Compound: H-GAAAPP-NH2
- Activity (brain [1]): 30%
- Activity [4]: 148%

Compound: H-GAAPPG-NH2
- Activity (brain [1]): 5%
- Activity [4]: 240%

Compound: H-GAPAPG-NH2
- Activity (brain [1]): 52%
- Activity [4]: 85%

Compound: H-GPAAPG-NH2
- Activity (brain [1]): 261%
- Activity [4]: 48%

Compound: H-HAAGAAAAGA-NH2
- Activity (brain [1]): 39%
- Activity [4]: 59%

Compound: H-HAAGAAAAGAV-NH2
- Activity (brain [1]): 74%
- Activity [4]: 34%

Compound: H-HAAGAAAPGA-NH2
- Activity (brain [1]): 183%
- Activity [4]: 28%

Compound: H-HAAGAAAPGAV-NH2
- Activity (brain [1]): 32%
- Activity [4]: 64%

Compound: H-HAAPAAAAGA-NH2
- Activity (brain [1]): 151%
- Activity [4]: 93%

Compound: H-HAAPAAAAGAV-NH2
- Activity (brain [1]): 225%
- Activity [4]: 38%

Compound: H-HPAGAAAAGA-NH2
- Activity (brain [1]): 23%
- PrP-res formation relative to control [2]: 11%
- Activity [4]: 11%

Compound: H-HPAGAAAAGAV-NH2
- Activity (brain [1]): 135%
- Activity [4]: 74%

Compound: H-KHAAGAAAAGA-NH2
- Activity (brain [1]): 59%
- Activity [4]: 102%

Compound: H-KHAAGAAAAGAVV-NH2
- Activity (brain [1]): 93%
- Activity [4]: 112%

Compound: H-KHAAGAAAPGA-NH2
- Activity (brain [1]): 44%
- Activity [4]: 52%

Compound: H-KHAAGAAAPGAVV-NH2
- Activity (brain [1]): 7%
- Remaining PrP-res level (brain [3]): 108%
- Activity [4]: 86%

Compound: H-KHAAPAAAAGA-NH2
- Activity (brain [1]): 70%
- Activity [4]: 73%

Compound: H-KHAAPAAAAGAVV-NH2
- Activity (brain [1]): 68%
- PrP-res formation relative to control [2]: 44%
- Activity [4]: 44%

Compound: H-KHPAGAAAAGA-NH2
- Activity (brain [1]): 83%
- Activity [4]: 19%

Compound: H-KHPAGAAAAGAVV-NH2
- Activity (brain [1]): 68%
- Activity [4]: 73%

Compound: H-MAGAAAAGA-NH2
- Activity (brain [1]): 89%
- Activity [4]: 104%

Compound: H-MLGSAPSR-NH2
- Activity (brain [1]): 61%
- Activity [4]: 1%

Compound: H-PAGAAAA-NH2
- Activity (brain [1]): 71%

Compound: H-PAGAAAAG-NH2
- Activity (brain [1]): 10%
- Remaining PrP-res level (brain [3]): 158%
- Activity [4]: 130%

Compound: H-PAGAAAAGA-NH2
- Activity (brain [1]): 100%
- Activity [4]: 71%

Compound: H-PAGAAAAGAV-NH2
- Activity (brain [1]): 112%
- Activity [4]: 77%

Compound: H-PAGAAAAGAVV-NH2
- Activity (brain [1]): 132%
- PrP-res formation relative to control [2]: 28%
- Activity [4]: 28%

Compound: H-PAGAAAPGA-NH2
- Activity (brain [1]): 79%
- Activity [4]: 56%

Compound: H-PLGSAMSR-NH2
- Activity (brain [1]): 45%
- Activity [4]: 11%

Compound: H-VAGAAAAGA-NH2
- Activity (brain [1]): 93%
- Activity [4]: 84%
